Laboratory results: the supplement of paper PMC10307832

What was measured:
Test in all cases: relative viability (nuclei count vs DMSO), 5 days (fraction); higher = more cells survive
[1] = compound: Cc1cc(Nc2cc(N3CCN(C)CC3)nc(Sc3ccc(NC(=O)C4CC4)cc3)n2)n[nH]1 [Tozasertib] + Nc1nc2[nH]cc(CCc3ccc(C(=O)N[C@@H](CCC(=O)O)C(=O)O)cc3)c2c(=O)[nH]1 [Pemetrexed] (partner 0.2 µM)
Outline: (§1)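 Relative viability was taken as the ratio of nuclei in treated wells to nuclei in vehicle wells. Lung cancer cell lines in 1536-well plates received compounds by pin tool one day after seeding, either one drug alone or a fixed anchor-drug dose plus five library-drug doses (not always all listed) in √10 steps. Nuclei were counted on 4× images after 5 days of treatment, and values are medians of duplicate plates.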

[2] = compound: Cc1cc(Nc2cc(N3CCN(C)CC3)nc(Sc3ccc(NC(=O)C4CC4)cc3)n2)n[nH]1 [Tozasertib] + COc1cc2c(Oc3ccc(NC(=O)C4(C(=O)Nc5ccc(F)cc5)CC4)cc3F)ccnc2cc1OCCCN1CCOCC1 [Foretinib] (partner 0.25 µM)
Outline: as §1

[3] = compound: Cc1cc(Nc2cc(N3CCN(C)CC3)nc(Sc3ccc(NC(=O)C4CC4)cc3)n2)n[nH]1 [Tozasertib] + O=C(c1cc(Cc2n[nH]c(=O)c3ccccc23)ccc1F)N1CCN(C(=O)C2CC2)CC1 [Olaparib] (partner 8 µM)
Outline: as §1

[4] = compound: Cc1cc(Nc2cc(N3CCN(C)CC3)nc(Sc3ccc(NC(=O)C4CC4)cc3)n2)n[nH]1 [Tozasertib] + CC1(C)CCC(c2ccc(Cl)cc2)=C(CN2CCN(c3ccc(C(=O)NS(=O)(=O)c4ccc(N[C@H](CCN5CCOCC5)CSc5ccccc5)c(S(=O)(=O)C(F)(F)F)c4)cc3)CC2)C1 [Navitoclax] (partner 0.5 µM)
Outline: as §1

[5] = compound: Cc1cc(Nc2cc(N3CCN(C)CC3)nc(Sc3ccc(NC(=O)C4CC4)cc3)n2)n[nH]1 [Tozasertib] + N=C(N)NC(=N)NCCc1ccccc1 [Phenformin] (partner 250 µM)
Outline: as §1

Cell Line | relative viability ([1]; first compound 0.004 µM) | relative viability ([1]; first compound 0.01265 µM) | relative viability ([1]; first compound 0.04 µM) | relative viability ([1]; first compound 0.1265 µM) | relative viability ([2]; first compound 0.004 µM) | relative viability ([2]; first compound 0.01265 µM) | relative viability ([2]; first compound 0.04 µM) | relative viability ([2]; first compound 0.1265 µM) | relative viability ([3]; first compound 0.004 µM) | relative viability ([3]; first compound 0.01265 µM) | relative viability ([3]; first compound 0.04 µM) | relative viability ([3]; first compound 0.1265 µM) | relative viability ([4]; first compound 0.004 µM) | relative viability ([4]; first compound 0.01265 µM) | relative viability ([4]; first compound 0.04 µM) | relative viability ([4]; first compound 0.1265 µM) | relative viability ([5]; first compound 0.004 µM) | relative viability ([5]; first compound 0.01265 µM) | relative viability ([5]; first compound 0.04 µM) | relative viability ([5]; first compound 0.1265 µM)
201T | 0.33 | 0.283 | 0.377 | 0.362 | 1.09 | 1.04 | 1.28 | 1.09 | 0.846 | 0.838 | 0.849 | 0.814 | 1.16 | 1.22 | 1.23 | 1.16 | 0.496 | 0.432 | 0.448 | 0.415
A549 |  |  |  |  |  | 0.823 | 0.871 | 0.251 | 0.2 | 0.324 | 0.313 | 0.13 | 1.26 | 1.29 | 1.14 | 0.179 | 0.117 | 0.161 | 0.169 | 0.0581
A-427 | 1 |  | 0.973 | 0.75 | 1.03 | 0.935 | 1 | 0.594 | 0.769 | 0.645 | 0.734 | 0.47 |  | 0.979 | 0.995 | 0.755 | 0.332 | 0.31 | 0.328 | 0.169
ABC-1 |  |  |  |  | 0.988 | 1.27 | 0.838 | 0.381 | 0.832 | 0.704 | 0.394 | 0.613 |  |  |  |  | 0.218 | 0.202 | 0.261 | 0.172
BEN | 0.847 | 0.72 | 0.923 | 0.487 | 1.02 | 0.463 | 0.678 | 0.493 |  | 1.09 | 0.931 | 0.956 | 0.0692 | 0.0723 | 0.0504 | 0.0587 | 0.277 | 0.253 | 0.296 | 0.252
CAL-12T | 1.3 | 1.14 | 1.25 | 1.01 | 1.19 | 1.04 | 1.11 | 1.11 |  | 0.741 | 0.769 | 0.55 | 1.33 | 1.14 | 1.31 | 1.08 | 0.669 | 0.499 | 0.529 | 0.272
COR-L23 | 0.206 | 0.206 | 0.187 | 0.179 | 0.998 | 0.847 | 0.783 | 0.523 | 0.375 | 0.378 | 0.3 | 0.299 | 1 | 0.897 | 0.954 | 0.757 | 0.44 | 0.425 | 0.407 | 0.176
COR-L 105 | 1.05 | 1.14 | 1.23 | 1.15 | 1.03 | 0.993 | 1 | 0.803 | 0.681 | 0.725 | 0.716 | 0.754 | 0.787 | 0.644 | 0.932 | 0.542 | 0.501 | 0.46 | 0.483 | 0.275
ChaGo-K-1 | 0.255 | 0.268 | 0.254 | 0.264 | 0.939 | 0.874 | 0.813 | 0.249 | 0.4 | 0.386 | 0.407 | 0.372 | 1.13 | 0.946 | 1.2 | 0.3 | 0.528 | 0.456 | 0.562 | 0.289
EKVX | 0.371 | 0.351 | 0.382 | 0.351 | 0.74 | 0.76 | 0.838 | 0.786 | 0.93 | 0.773 | 0.798 | 0.688 | 0.932 | 0.939 | 1.06 | 0.914 | 0.256 | 0.212 | 0.23 | 0.222
EMC-BAC-2 | 0.464 | 0.407 | 0.467 | 0.428 | 1.1 | 0.935 | 1.02 | 0.642 | 0.511 | 0.437 | 0.414 | 0.366 | 1.18 | 1.14 | 1.25 | 0.812 | 0.486 | 0.513 | 0.518 | 0.357
EPLC-272H | 0.341 | 0.381 | 0.258 | 0.206 | 0.643 | 0.595 | 0.604 | 0.496 | 0.729 |  |  | 0.341 | 1.1 | 1.17 | 1.08 |  | 0.307 | 0.337 | 0.256 | 0.275
H3255 | 0.519 | 0.579 | 0.567 | 0.552 | 1.43 | 0.698 | 0.868 | 0.706 | 0.554 | 0.564 | 0.602 | 0.503 | 0.336 | 0.594 | 0.569 | 0.463 | 0.291 | 0.396 | 0.379 | 0.353
HARA | 0.24 | 0.27 | 0.274 | 0.203 |  | 0.824 | 1.03 | 0.145 | 0.821 | 1.2 | 0.983 | 0.349 | 1.17 | 1.07 | 1.15 | 1.07 | 0.365 | 0.44 | 0.493 | 0.444
HCC-15 | 0.232 | 0.234 | 0.228 | 0.228 | 1.1 | 0.99 | 1.1 | 0.764 | 0.715 |  | 0.688 | 0.597 | 0.692 | 0.692 | 0.768 | 0.641 | 0.504 | 0.477 | 0.5 | 0.341
